Measured values: patent publication US20210353579A1, “HIGH PENETRATION COMPOSITIONS AND USES THEREOF” (Techfields Pharma Co., Ltd., priority 2006, published 2021)
Converted amounts (≈) assume the structure as drawn.

Columns and labels:
rats = assay: Antipyretic activity, E. coli suspension as pyrogen; assay type: in vivo; details: in °C (unit assumed)
Method: Rats are administered with sterilized E. coli suspension as a pyrogen. Each group of rats are administered with a prodrug compounds or parent compounds at a dosage specified below. The prodrug compounds are administered either orally or transdermally. The parent compounds are administered orally.

mice = assay: Analgesic activity, acetic acid writhing; assay type: in vivo
Method: The prodrug compounds are administered either transdermally or orally. The parent compounds are administered orally. The number of writhing that occurred when mice are administered the acetic acid solution are counted, and the rate of inhibition based on the control group which was not pretreated with any test compounds is calculated. […] The A group is the control group.

[1] = Plasma levels after transdermal administration to hairless mice; assay type: in vivo; details: for Peak plasma concentration of parent compound after prodrug compound / t, time to peak plasma level of parent compound after prodrug compound: mouse, in vivo; for t, time to peak plasma level after parent compound: parent compound administered (time when taken orally); for Peak plasma concentration after parent compound: parent compound administered, hairless mice
Method: Tested compounds (20% solution or suspension in 1 mL isopropanol) are administered transdermally to the skin of intact hairless mice. The plasma levels of the parent compounds are determined by HPLC.

human skin tissue = details: pH 7.4; for In vitro penetration rate (apparent flux), parent compounds: human, 20 %
[2] = Solubility in water / aqueous solubility of HPPs and parent drugs; details: for solubility: water; for Solubility in water: product as prepared in Example 1
[3] = 50 mg/kg transdermally, 60 minutes before acetic acid
[4] = 100 mg/kg transdermally, 30 min before acetic acid

| solubility [2] | Molecule | Peak plasma concentration of parent compound after prodrug compound [1] | In vitro penetration rate (apparent flux), prodrug compounds (human skin tissue) | t, time to peak plasma level of parent compound after prodrug compound [1] | body temperature, t = 0 min (rats; 100 mg/kg transdermally) | body temperature, t = 90 min (rats; 100 mg/kg transdermally) | body temperature, t = 180 min (rats; 100 mg/kg transdermally) | body temperature, t = 270 min (rats; 100 mg/kg transdermally) | % (rate of writhing inhibition) (mice; [4]) | No. of Writhing (mice; [4]) | further results |
| --- | --- | --- | --- | --- | --- | --- | --- | --- | --- | --- | --- |
| – | 8-chloro-(4-N,N-dimethylaminobutyryloxy-pyridine-2-ylamino-methylidene)-3-methyl-2,2-dioxo-2λ^6,7-dithia-3-azabicyclo[4,3,0]nona-8,10-dien-5-one.HCl | – | – | – | – | – | – | – | – | – | body temperature, t = 0 min (rats; 25 mg/kg transdermally): 37.53 ± 0.05; body temperature, t = 90 min (rats; 25 mg/kg transdermally): 36.57 ± 0.05; body temperature, t = 180 min (rats; 25 mg/kg transdermally): 36.52 ± 0.07; body temperature, t = 270 min (rats; 25 mg/kg transdermally): 36.51 ± 0.06; % (rate of writhing inhibition) (mice; [3]): 50%; No. of Writhing (mice; [3]): 17.5 |
| – | CN(C)CCCC(=O)OC1=C(C(=O)Nc2ccccn2)N(C)S(=O)(=O)c2ccsc21.Cl [4-N,N-dimethylaminobutyryloxy-2-methyl-N-2-pyridinyl-2H-thieno[2,3-e]-1,2-thiazine-3-carboxamide 1,1-dioxide.HCl] | 20 mg/L | 1800 μg/cm^2/h | – | – | – | – | – | – | – | body temperature, t = 0 min (rats; 25 mg/kg transdermally): 37.54 ± 0.06; body temperature, t = 90 min (rats; 25 mg/kg transdermally): 36.61 ± 0.06; body temperature, t = 180 min (rats; 25 mg/kg transdermally): 36.58 ± 0.08; body temperature, t = 270 min (rats; 25 mg/kg transdermally): 36.55 ± 0.05; % (rate of writhing inhibition) (mice; [3]): 53%; No. of Writhing (mice; [3]): 16.9 |
| 100 µg/mL (≈ 0.441 mM) | C=CCOc1ccc(CC(=O)O)cc1Cl [Alclofenac, alclofenac, reference compound] | – | – | – | – | – | – | – | – | – | t, time to peak plasma level after parent compound [1]: 1 to 2 h; Peak plasma concentration after parent compound [1]: 0.1 mg/L; In vitro penetration rate (apparent flux), parent compounds (human skin tissue): 10 μg/cm^2/h |
| 100 µg/mL (≈ 0.354 mM) | O=C(O)COc1nn(Cc2ccccc2)c2ccccc12 [Bendazac, bendazac, reference compound] | – | – | – | – | – | – | – | – | – | t, time to peak plasma level after parent compound [1]: 1 to 2 h; Peak plasma concentration after parent compound [1]: 0.1 mg/L |
| 100 µg/mL (≈ 0.337 mM) | Cc1ccc2c(c1)CC(=O)c1cc(C(C)C(=O)O)ccc1O2 (stereo not shown) [Bermoprofen, bermoprofen, reference compound] | – | – | – | – | – | – | – | – | – | t, time to peak plasma level after parent compound [1]: 2 to 4 h; Peak plasma concentration after parent compound [1]: 10 mg/L; In vitro penetration rate (apparent flux), parent compounds (human skin tissue): 40 μg/cm^2/h |
| – | O=C(O)CCC(=O)c1ccc(-c2ccccc2)cc1 [Fenbufen, fenbufen, reference compound] | – | – | – | – | – | – | – | – | – | t, time to peak plasma level after parent compound [1]: 2 to 4 h; Peak plasma concentration after parent compound [1]: 10 mg/L; In vitro penetration rate (apparent flux), parent compounds (human skin tissue): 40 μg/cm^2/h |
| < 100 µg/mL | Cc1c(Nc2ncccc2C(=O)O)cccc1C(F)(F)F [Flunixin, flunixin, reference compound] | – | – | – | – | – | – | – | – | – | t, time to peak plasma level after parent compound [1]: 2 to 4 h; Peak plasma concentration after parent compound [1]: 0.1 mg/L; In vitro penetration rate (apparent flux), parent compounds (human skin tissue): 10 μg/cm^2/h |
| 200 µg/mL (≈ 0.819 mM) | CC(C(=O)O)c1ccc(-c2ccccc2)c(F)c1 (stereo not shown) [Flurbiprofen, flurbiprofen, reference compound] | – | – | – | – | – | – | – | – | – | t, time to peak plasma level after parent compound [1]: 2 to 4 h; Peak plasma concentration after parent compound [1]: 10 mg/L; In vitro penetration rate (apparent flux), parent compounds (human skin tissue): 30 μg/cm^2/h |
| 100 µg/mL (≈ 0.52 mM) | CC(C)Cc1ccc(CC(=O)O)cc1 [Ibufenac] | – | – | – | – | – | – | – | – | – | – |
| – | CC(=O)O.CCN(CC)CCNC(=O)CCc1nc(-c2ccccc2)c(-c2ccccc2)o1 [N-diethylaminoethyl 4,5-Diphenyl-2-oxazole propionamide.AcOH] | – | – | – | – | – | – | – | – | – | Solubility in water [2]: 400000 µg/mL |
| – | CC(=O)O.CN(C)CCNC(=O)Cc1ccccc1Nc1c(Cl)cccc1Cl [N-dimethylaminoethyl 2[(2,6-dichlorophenyl)amino] benzene acetamide.AcOH] | – | – | – | – | – | – | – | – | – | Solubility in water [2]: 450000 µg/mL |
| – | CC(=O)O.CN(C)CCSC(=O)Cc1ccccc1Nc1c(Cl)cccc1Cl [S-dimethylaminoethyl 2[(2,6-dichlorophenyl)amino] benzene acetate.AcOH] | – | – | – | – | – | – | – | – | – | Solubility in water [2]: 410000 µg/mL |
| – | CN1C(C(=O)Nc2ccccn2)=C(O)c2sccc2S1(=O)=O [Tenoxicam, tenoxicam, reference compound] | – | – | – | – | – | – | – | – | – | t, time to peak plasma level after parent compound [1]: 2 to 4 h; Peak plasma concentration after parent compound [1]: 0.1 mg/L; In vitro penetration rate (apparent flux), parent compounds (human skin tissue): <1 μg/cm^2/h |
| – | CC(=O)O.CCN(CC)CCOC(=O)C(C)c1ccc(-c2ccccc2)c(F)c1 (stereo not shown) [diethylaminoethyl 2-(2-fluoro-4-biphenylyl)propionate.AcOH] | 2000 mg/L | 3500 μg/cm^2/h | 50 min | 37.29 ± 0.07 | 36.82 ± 0.06 | 36.70 ± 0.05 | 36.67 ± 0.08 | 55% | 15.6 | – |
| – | CC(=O)O.CCN(CC)CCOC(=O)C(C)c1ccc(CC2CCCC2=O)cc1 (stereo not shown) [diethylaminoethyl 2-[4-(2-oxocyclopentyl-methyl)phenyl]propionate.AcOH] | 2000 mg/L | 3400 μg/cm^2/h | 50 min | 37.25 ± 0.06 | 36.71 ± 0.05 | 36.65 ± 0.08 | 36.64 ± 0.07 | 55% | 15.7 | – |
| > 400000 µg/mL | CCN(CC)CCOC(=O)c1ccccc1Nc1cccc(Cl)c1C [diethylaminoethyl 2-[(3-chloro-2-methylphenyl)amino]benzoate] | – | – | – | – | – | – | – | – | – | – |
| – | CC(=O)O.CCN(CC)CCOC(=O)CCC(=O)c1ccc(-c2ccccc2)cc1 [diethylaminoethyl 3-(4-biphenylylcarbonyl)propionate.AcOH] | 2000 mg/L | 3600 μg/cm^2/h | 50 min | 37.23 ± 0.06 | 36.81 ± 0.05 | 36.65 ± 0.08 | 36.61 ± 0.07 | 59% | 14.2 | – |
| – | CC(=O)O.CCN(CC)CCOC(=O)C(C)c1ccc(N2CC=CC2)c(Cl)c1 (stereo not drawn) [diethylaminoethyl 3-chloro-4-(2,5-dihydro-1H-pyrrol-1-yl)-α-methyl benzeneacetate.AcOH] | 2000 mg/L | 3500 μg/cm^2/h | 50 min | 37.27 ± 0.06 | 36.68 ± 0.05 | 36.62 ± 0.08 | 36.58 ± 0.07 | 60% | 14.0 | – |
| – | CC(=O)O.CCN(CC)CCOC(=O)CCc1nc(-c2ccccc2)c(-c2ccccc2)o1 [diethylaminoethyl 4,5-Diphenyl-2-oxazole propionate.AcOH] | 2000 mg/L | 4000 μg/cm^2/h | 50 min | 37.24 ± 0.07 | 36.82 ± 0.06 | 36.70 ± 0.05 | 36.67 ± 0.08 | 55% | 15.7 | – |
| – | CC(=O)O.CCN(CC)CCOC(=O)CC(O)c1ccc(-c2ccc(Cl)cc2)o1 (stereo not drawn) [diethylaminoethyl 5-(4-chlorophenyl)-beta-hydroxy-2-furanpropionate.AcOH] | 2000 mg/L | 4100 μg/cm^2/h | 50 min | 37.29 ± 0.07 | 36.82 ± 0.06 | 36.60 ± 0.05 | 36.67 ± 0.08 | 55% | 15.6 | – |
| – | CC(=O)O.CCN(CC)CCOC(=O)C1CCn2c(C(=O)c3ccccc3)ccc21 (stereo not shown) [diethylaminoethyl 5-benzoyl-2,3-dihydro-1H-pyrrolizine-1-carboxylate.AcOH] | 2000 mg/L | 3800 μg/cm^2/h | 50 min | 37.22 ± 0.06 | 36.65 ± 0.06 | 36.58 ± 0.08 | 36.51 ± 0.07 | 54% | 16.1 | – |
| – | CC(=O)O.CCN(CC)CCOC(=O)C(C)c1ccc(C(=O)c2ccccc2)s1 (stereo not drawn) [diethylaminoethyl 5-benzoyl-α-methyl-2-thiopheneacetate.AcOH] | 2000 mg/L | 4200 μg/cm^2/h | 50 min | 37.26 ± 0.06 | 36.65 ± 0.06 | 36.58 ± 0.08 | 36.36 ± 0.07 | 62% | 13.2 | – |
| – | CC(=O)O.CCN(CC)CCOC(=O)Cc1ccc(CC(C)C)cc1 [diethylaminoethyl p-isobutylphenylacetate.AcOH] | – | – | – | – | – | – | – | – | – | Solubility of HPP ([2]; medium not given): >250000 µg/mL |
| < 100 µg/mL | Cc1c(Cl)cccc1Nc1ccccc1C(=O)O [tolfenamic acid] | – | – | – | – | – | – | – | – | – | – |
